Experimental data taken from article PMC6757289, “Design and Characterization of SGK3-PROTAC1, an Isoform Specific SGK3 Kinase PROTAC Degrader” (ACS Chemical Biology, 2019).

Key:
Assay type in all cases: cell-based
[1] = target: S6K1 (Homo sapiens, UniProt P23443); test: S6K1 protein level in HEK293 cells, immunoblot; parameters: reduced endogenous SGK isoform or S6K1 expression when administered to HEK293 cells for 48 h; endogenous in cells; host or cells: HEK293
Experimental: A medium length linker composed of three PEG units was used in the first instance (Figure 1B and C). […] After 48 h of PROTAC treatment, cell lysates were analyzed by immunoblot analysis, and protein expression under each condition was quantified relative to the DMSO-only control. […] DAT1 reduced SGK3 expression by 60% at 1 μM and 75% at 10 μM after 48 h (Figure 1D). […] As expected, inhibition of CUL2 neddylation by means of the inhibitor MLN4924 (3 μM) or proteasome inhibition (MG132, 50 μM) blocked DAT1-induced degradation of SGK3 (Figure S1C).
(§1) All cell treatments were carried out as described in figure legends, to a final DMSO concentration of 0.1% (v/v). Lysates were quantified. Immunoblotting was performed using standard procedures, described in brief below. Lysate concentration was quantified by Bradford Assay, and 10 μg of lysate was loaded in the LDS sample buffer for SDS-PAGE electrophoresis on Novex 4–12% Bis–Tris gels. Proteins were electrophoretically transferred onto nitrocellulose membranes (Amersham Protran 0.45 μm NC; GE Healthcare) at 80 V for 80 min on ice in transfer buffer. Transferred membranes were blocked with 5% (w/v) nonfat dry milk dissolved in TBS-T [20 mM Tris/HCl, pH 7.5, 150 mM NaCl, and 0.1% (v/v) Tween 20] at RT for 30 min, before incubation with the primary antibody overnight at 4 °C. The signal was produced with near-infrared secondary antibodies and detected using a Licor Biosciences Odyssey System, and the signal was quantified in Image Studio Lite.

[2] = target: T1, SGK3 (Homo sapiens, UniProt Q96BR1); test: SGK3 degradation in ZR-75-1 cells, immunoblot; details: for SGK3 expression: ZR-75-1, 5 days 1 μM GDC0941 or AZD5363, 0.3 μM for 5 days or 8 h
T1 sequence (Q96BR1 1-496): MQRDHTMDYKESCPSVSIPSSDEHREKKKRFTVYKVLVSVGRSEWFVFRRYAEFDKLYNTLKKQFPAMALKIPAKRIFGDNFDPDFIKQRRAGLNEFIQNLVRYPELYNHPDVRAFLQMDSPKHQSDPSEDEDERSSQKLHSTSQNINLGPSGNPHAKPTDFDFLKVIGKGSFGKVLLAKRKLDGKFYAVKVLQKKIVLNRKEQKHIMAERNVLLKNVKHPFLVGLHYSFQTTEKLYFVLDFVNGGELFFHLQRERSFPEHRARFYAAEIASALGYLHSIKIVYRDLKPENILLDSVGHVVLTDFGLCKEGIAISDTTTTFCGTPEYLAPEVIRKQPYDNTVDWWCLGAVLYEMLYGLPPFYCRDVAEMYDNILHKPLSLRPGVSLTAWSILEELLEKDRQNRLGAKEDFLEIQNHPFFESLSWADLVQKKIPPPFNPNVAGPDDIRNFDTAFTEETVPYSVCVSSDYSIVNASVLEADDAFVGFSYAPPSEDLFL
Experimental: Figure 3 Characterization of cellular activities of SGK3-PROTAC1 and cisSGK3-PROTAC1. (A) HEK293 cells were first treated for 8 h with 0.03–3 μM SGK3-PROTAC1 and cisSGK3-PROTAC1. One hour before lysis, cells were treated with 3 μM AZD5363. Lysates were subjected to immunoblot analysis with the indicated antibodies. […] Lysates were subjected to immunoblot analysis with the indicated antibodies. (C) HEK293 cells were treated for up to 48 h with SGK3-PROTAC1 (0.3 μM), and lysates were analyzed by immunoblot analysis using the indicated antibodies. (D) HEK293 cells were treated for 24 h with SGK3-PROTAC1. Cells were washed three times with DMEM to wash out the compound, and recovery of SGK3 expression protein was analyzed by immunoblot analysis. (E–G) As in A except that CAMA-1 (E), ZR-75-1 (F), and JIMT-1 (G) cells were employed rather than HEK293 cells.
Figure 5 SGK3-PROTAC1-mediated degradation of SGK3 inhibits Akt-independent activation of mTORC1 in cancer cell lines treated with Akt or PI3K inhibitors. CAMA-1 (A, C) or ZR-75-1 (B, D) were treated for 5 days with 1 μM GDC0941 (A, B) or 1 μM AZD5363 (C, D). Cells were treated with the compounds indicated for either 5 days or 8 h before lysis; cells were treated with the compounds indicated. Cell lysates were subject to immunoblot analysis with the indicated antibodies.
as §1

[3] = tested on: CAMA-1 cells; test: Cell growth (confluency, Incucyte S3); details: for growth in combination with GDC0941 or AZD5363: 1 μM GDC0941 or AZD5363, SGK3-PROTAC1/cisSGK3-PROTAC1 0.3 μM, 14H 3 μM
Experimental: (§2) Figure 6 SGK3-PROTAC1-mediated degradation of SGK3 further inhibiting the growth of cancer cell lines treated with PI3K-Akt pathway inhibitors. CAMA-1 (A, C) and ZR-75-1 (B, D) were treated with compounds as indicated either as monotherapy or in combination, and confluency was measured on the Incucyte S3 every 4 h for up to 4 weeks.
(§3) For growth assays, ZR-75-1 cells were seeded in 96-well plates at a density of 6000 cells/well and left to adhere overnight. Cells were then treated with compounds as described in the figure legends and imaged every 4 h on the Incucyte S3 (Essen Bioscience) for up to 4 weeks to give a measure of cell confluency. Media were refreshed every 4–5 days.
(§4) Supplementary Figure S3. SGK3-PROTAC compounds have no effect on cell growth. CAMA-1 and ZR-75-1
(§5) confluency was m easured every 4 h on Incucyte S3.
(§6) (1 picture or pasted object on this page, not shown here)

[4] = tested on: ZR-75-1 cells; test: Cell growth (confluency, Incucyte S3); details: for growth in combination with GDC0941 or AZD5363: 1 μM GDC0941 or AZD5363, SGK3-PROTAC1/cisSGK3-PROTAC1 0.3 μM, 14H 3 μM
Experimental: as §2, §3, §4, §5, §6

S6K1, sequence (P23443 whole entry, canonical isoform): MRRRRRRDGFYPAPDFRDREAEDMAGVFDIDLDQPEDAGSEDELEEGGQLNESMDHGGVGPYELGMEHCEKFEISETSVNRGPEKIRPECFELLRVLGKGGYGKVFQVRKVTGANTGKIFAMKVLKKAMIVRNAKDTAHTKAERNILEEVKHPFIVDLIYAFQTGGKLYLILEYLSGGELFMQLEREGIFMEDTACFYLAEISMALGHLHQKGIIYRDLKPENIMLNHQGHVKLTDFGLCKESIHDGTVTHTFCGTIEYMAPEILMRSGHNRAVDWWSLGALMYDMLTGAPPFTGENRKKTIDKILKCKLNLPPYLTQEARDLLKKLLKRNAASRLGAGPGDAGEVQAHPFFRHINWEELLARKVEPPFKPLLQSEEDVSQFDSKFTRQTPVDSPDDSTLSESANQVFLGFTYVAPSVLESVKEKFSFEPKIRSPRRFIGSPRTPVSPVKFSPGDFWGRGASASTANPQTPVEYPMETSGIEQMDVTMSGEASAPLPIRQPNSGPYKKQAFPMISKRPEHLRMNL

Row | S6K1 level ([1]; HEK293, 48 h, up to 10 μM) | Structure (SMILES) | concentration inducing degradation of SGK3 ([2]; ZR-75-1, 8 h) | SGK3 expression [2] | growth, compound alone ([3]; CAMA-1) | suppression of growth compared with 14H (3 μM) ([3]; CAMA-1, 0.3 μM, with AZD5363 1 μM) | inhibition of cell growth compared with 14H (3 μM) ([3]; CAMA-1, 0.3 μM, with GDC0941 1 μM) | growth in combination with GDC0941 or AZD5363 ([3]; CAMA-1) | growth, compound alone ([4]; ZR-75-1) | suppression of growth compared with 14H (3 μM) ([4]; ZR-75-1, 0.3 μM, with AZD5363 1 μM) | inhibition of cell growth compared with 14H (3 μM) ([4]; ZR-75-1, 0.3 μM, with GDC0941 1 μM) | growth in combination with GDC0941 or AZD5363 ([4]; ZR-75-1) | S6K1 degradation ([1]; HEK293, 8 h, doses of up to 1 μM) | S6K1 level ([1]; HEK293, 48 h, 0.1 μM) | S6K1 degradation ([1]; HEK293, 48 h, 1–10 μM) | degradation of SGK3 ([2]; ZR-75-1, 8 h, 0.03–3 μM)
1 | not significantly impacted | Cc1ccc(F)c(S(=O)(=O)Nc2ccc(-c3nc(OC[C@H]4CN(CCOCCOCCOCC(=O)N[C@H](C(=O)N5C[C@H](O)C[C@H]5C(=O)NCc5ccc(-c6scnc6C)cc5)C(C)(C)C)CCO4)c4cn[nH]c4n3)cc2)c1 [DAT1] |  |  |  |  |  |  |  |  |  |  |  |  |  | 
2 |  | Cc1ccc(F)c(S(=O)(=O)Nc2ccc(-c3nc(OC[C@H]4CN(CCCCCCOCCOCCOCC(=O)N[C@H](C(=O)N5C[C@H](O)C[C@H]5C(=O)NCc5ccc(-c6scnc6C)cc5)C(C)(C)C)CCO4)c4cn[nH]c4n3)cc2)c1 [SGK3-PROTAC1] | > 0.1 µM | substantially reduced | no effect on growth | to a similar extent | to a greater extent | further reduced the growth | no effect on growth | to a similar extent | to a greater extent | further reduced the growth | no degradation | without effecting | moderate degradation | 
3 |  | Cc1ccc(F)c(S(=O)(=O)Nc2ccc(-c3nc(OC[C@H]4CN(CCCCCCOCCOCCOCC(=O)N[C@H](C(=O)N5C[C@@H](O)C[C@H]5C(=O)NCc5ccc(-c6scnc6C)cc5)C(C)(C)C)CCO4)c4cn[nH]c4n3)cc2)c1 [cisSGK3-PROTAC1] |  | no significant effect |  |  |  | minimal effect |  |  |  | minimal effect |  |  |  | no impact
